Source: patent US11912994B2 (The General Hospital Corporation, priority 2015, dated 2024)

Columns and labels:
Format in all cases: cell-based, mouse
[1] = test system: GFP transgene on the inactive X (Xi-TgGFP fibroblasts); experiment: Assay for the reactivation of Xi-TgGFP (GFP RT-qPCR); details: single drug 0.3 μM, shControl
Text: Xi-TgGFP (68-5-11) tail-tip fibroblasts (TTF) were initially derived from a single female pup, a daughter of a cross between aM castaneus male and aM musculus female, homozygous for an X-linked GFP transgene driven by a strong, ubiquitous promoter (58). The fibroblasts were immortalized by SV40 transformation, and clonal lines were derived from individual GFP-negative cells selected by fluorescence-activated cell sorting. In our experience, occasional clones with undetectable GFP expression nevertheless have the transgene located on the active X chromosome.
A cocktail of 3 shRNA viruses were used for infections (Table 2) followed with puromycin selection using standard methodology. In all the experiments, polyclonal knock down cells were used.
RNA was isolated by Trizol twice, with an intermittent TurboDNase treatment after the first isolation for 30 min at 37° C. One μg RNA was used for each of the RT+ and RT− reactions (Superscript III, Invitrogen) followed by the SYBR green qPCR using the primers listed in Table 3, with annealing temperature of 60° C. for 45 cycles. The relative efficiency of Xi-TgGFP reactivations was calculated by comparing to U1 snRNA as the internal control.

[2] = Drug concentration relative to IC50 / toxicity in fibroblasts; details: 0.3 μM
[3] = test system: Mecp2 on the Xi (Mecp2:luciferase fusion); experiment: Luciferase screen in Mecp2-Luc fusion Xi cell line
Protocol: To determine whether an LNA targeting XIST could also be used in addition to or as an alternative to an agent described herein, experiments were performed in the following cells: immortalized monoclonal MEFs with the reporter GFP (Bird) or LUC (Bedalov) fused to Mecp2, on the Xi or Xa, immortalized human fibroblasts from a […] with Rett syndrome (Coriell) and primary mouse cortical neurons.
The LNAs were designed with the Exiqon web tool. Xist LNA for mouse ([…]; SEQ ID NO:50) targets exon 1 between rep C and rep D. The human Xist LNAs target the following sequences: A1: […]; SEQ ID NO:51; A2: […]; SEQ ID NO:52; A3: […]; SEQ ID NO:53. […] 5-azadeoxycitidine (in DMSO) was added to a final concentration of 0.5 μM (except in the titration experiment 0.1-2.5 μM).
Luciferase experiments were performed on a Microbeta2 LumiJet with a luciferase assay system (Promega). […] Afterwards, the cells were trypsinized, washed, and lysed using cell culture lysis reagent. Normalized measurements were performed in 96 well plates, during 10 seconds after a 2 second incubation period.

[4] = trial 1, 20 uM LNA, 0.5 uM aza, 3 days, 1 10^5 cells/ml, 24-well

Nc1ncn([C@@H]2O[C@H](CO)[C@@H](O)[C@H]2O)c(=O)n1 [5′-azacytidine, 4-amino-1-beta-D-ribofuranosyl-s-triazin-2(1H)-one]
GFP reactivation [1]: minimally reactivated GFP | Toxicity at the concentration used [2]: nontoxic

Nc1ncn([C@H]2C[C@H](O)[C@@H](CO)O2)c(=O)n1 [AzadC, 5-aza-2′-deoxycytidine]
Reactivation together with Xist LNA ([3]; added to Xist LNA, 0.5 μM, reporter not specified): Synergistic reactivation

COc1cc([C@@H]2c3cc4c(cc3[C@@H](O[C@@H]3O[C@@H]5CO[C@@H](C)O[C@H]5[C@H](O)[C@H]3O)[C@H]3COC(=O)[C@H]23)OCO4)cc(OC)c1O [etoposide]
GFP reactivation [1]: minimally reactivated GFP

xist: Xist LNA for mouse (TCTTGGTTACTAACAG; SEQ ID NO:50), targets exon 1 between rep C and rep D (LNA-modified, pattern not given here)
LCPS [3, 4]: 0 | raw CPS [3, 4]: 29.8
